Data on 8 compounds can be found in ChEMBL document CHEMBL1759955, “6-Benzoyl-3-hydroxypyrimidine-2,4-diones as dual inhibitors of HIV reverse transcriptase and integrase” (Bioorg Med Chem Lett, 2011).

For data set [1], the system named is CEM-SS. Nature of the data set: Cytotoxicity against human CEM-SS cells. Type of data set: cell-based.
Data set [2] is described as follows: Therapeutic index, ratio of CC50 for human CEM-SS cells to EC50 for HIV-1 3B infected in human CEM-SS cells. The following applies: CEM-SS cells (uninfected, and infected with HIV-1 3B). The data set is classed as cell-based.
The subject of data set [3] is CEM-SS. The data set can be described thus: Cytotoxicity against human CEM-SS cells assessed as viable cells at 10 uM. The data set is classed as cell-based.
The test system of data set [4] is Human immunodeficiency virus 1. Nature of the data set: Antiviral activity against HIV-1 3B infected in human CEM-SS cells. The data set is classed as functional, organism-based. The following applies: Human immunodeficiency virus 1, 3B.
Data set [5] deals with T1, Human immunodeficiency virus type 1 integrase (Human immunodeficiency virus 1, UniProt Q7ZJM1). The data set can be described thus: Inhibition of HIV1 integrase strand transfer activity.
Data set [6] has as its system Human immunodeficiency virus 1. Nature of the data set: Antiviral activity against HIV-1 3B infected in human CEM-SS cells assessed as protection against virus induced cytopathic effect at 10 uM. Particulars: Human immunodeficiency virus 1, 3B. Type of data set: functional.
In data set [7] the target is Human immunodeficiency virus type 1 reverse transcriptase (Human immunodeficiency virus 1, UniProt Q72547). Nature of the data set: Inhibition of HIV-1 reverse transcriptase.
Data set [8] has as its target T1, Human immunodeficiency virus type 1 integrase. The data set can be described thus: Inhibition of HIV1 integrase 3'-end processing activity.
For data set [9], the target named is Human immunodeficiency virus type 1 reverse transcriptase (Human immunodeficiency virus 1) (UniProt Q72547). Nature of the data set: Inhibition of HIV-1 reverse transcriptase at 10 uM.
For data set [10] the target is unchanged. Nature of the data set: Inhibition of HIV-1 reverse transcriptase at 100 uM.

T1 sequence (Q7ZJM1 whole entry): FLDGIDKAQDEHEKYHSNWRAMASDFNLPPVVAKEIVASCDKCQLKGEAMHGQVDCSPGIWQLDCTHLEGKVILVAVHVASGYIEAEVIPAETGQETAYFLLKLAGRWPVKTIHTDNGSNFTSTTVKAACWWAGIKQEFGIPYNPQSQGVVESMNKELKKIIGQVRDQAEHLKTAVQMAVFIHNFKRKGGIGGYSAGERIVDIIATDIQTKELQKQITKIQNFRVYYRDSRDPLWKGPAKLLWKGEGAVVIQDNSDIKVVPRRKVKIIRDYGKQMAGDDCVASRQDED

In data set [1], `CCc1c(C(=O)c2cc(C)cc(C)c2)n(COCc2ccc(F)cc2)c(=O)n(O)c1=O` gave a CC50 of 28 µM. Also, the selectivity ratio in data set [2] came out at 78. Also, the Activity in data set [3] came to 100%. In addition, in data set [4], the EC50 worked out at 360 nM. Besides, the IC50 was 21 µM in [5], 7.6 µM in data set [7] and greater than 111 µM in [8]. Further, the inhibition at 10 µM in data set [6] stood at 100%.

In [1], `CCOCn1c(C(=O)c2cc(C)cc(C)c2)c(CC)c(=O)n(O)c1=O` yielded a half-maximal cytotoxic concentration (CC50) of 77 µM. In data set [2], the selectivity ratio stood at 2600. Also, the Activity in data set [3] is listed as 100%. The compound further had an EC50 in data set [4] of 30 nM. The half-inhibitory concentration (IC50) was greater than 111 µM in [5], 0.5 µM in [7] and greater than 111 µM in data set [8]. Besides, in [6], the inhibition at 10 µM was determined as 100%. The inhibition in data set [9] turned out to be 61%; in data set [10], 94%.

In [1], `CCOCn1c(C(=O)c2ccccc2)c(CC)c(=O)n(O)c1=O` registered a CC50 of 94 µM. Also, in [2], the selectivity ratio was 41. Moreover, in [3], the Activity came to 100%. This compound had an EC50 in [4] of 2300 nM. The IC50 is greater than 111 µM in data set [5], 43 µM in [7] and greater than 111 µM in data set [8]. Also, the inhibition at 10 µM in data set [6] was determined as 100%.

Compound `CCc1c(C(=O)c2ccccc2)n(COCc2ccccc2)c(=O)n(O)c1=O` came in with a CC50 in data set [1] greater than 100 µM. Moreover, the selectivity ratio in data set [2] was greater than 71. The Activity in data set [3] is on record as 98%. The compound further returned a concentration for a half-maximal effect (EC50) in data set [4] of 1400 nM. The IC50 is 37 µM in data set [5], 14 µM in data set [7] and greater than 111 µM in data set [8]. For the same compound, the inhibition at 10 µM in data set [6] amounted to 100%.

Compound `CCc1c(C(=O)c2cc(C)cc(C)c2)n(COCc2ccccc2)c(=O)n(O)c1=O` showed a half-maximal cytotoxic concentration (CC50) in [1] of 33 µM. Moreover, the selectivity ratio in data set [2] stood at 540. Further, in data set [3], the Activity came to 100%. Also, the EC50 in data set [4] came out at 61 nM. Besides, the IC50 in data set [5] is 41 µM; in [7], 1 µM; in data set [8], greater than 111 µM. Besides, the inhibition at 10 µM in [6] was 100%. The figures for the inhibition in data set [9] and in data set [10] were 79% and 92%, respectively.

`CCc1c(C(=O)c2ccccc2)n(COCCc2ccc(F)cc2)c(=O)n(O)c1=O`: the CC50 in data set [1] is greater than 100 µM. For the same compound, the selectivity ratio in data set [2] is greater than 290. Moreover, in data set [3], the Activity came to 100%. Further, in data set [4], a half-maximal response (EC50) required 340 nM. Also, the results for the IC50 in data set [5] and in [8] were 4.1 µM and greater than 111 µM, respectively. In addition, in data set [6], the inhibition at 10 µM was 100%. The inhibition turned out to be 4% in data set [9] and 46% in data set [10].

Turning to `CCc1c(C(=O)c2cc(C)cc(C)c2)n(COCCc2ccc(F)cc2)c(=O)n(O)c1=O`, the Activity in data set [3] is 81%. In addition, the 50% inhibitory concentration (IC50) in data set [5] was 7 µM; in data set [7] it was 10 µM; in [8], greater than 111 µM. Further, the inhibition at 10 µM in data set [6] worked out at 56%. Also, the inhibition in [9] was 60%; in data set [10], 74%.

Take `CCc1c(C(=O)c2ccccc2)n(COCc2ccc(F)cc2)c(=O)n(O)c1=O`: the half-maximal cytotoxic concentration (CC50) in [1] was greater than 100 µM. For the same compound, in data set [2], the selectivity ratio was greater than 50. Moreover, in data set [3], the Activity is given as 100%. The compound also came in with an EC50 in [4] of 2000 nM. The results for the concentration for half-maximal inhibition (IC50) in data set [5], in data set [7] and in data set [8] were 25 µM, 23 µM and greater than 111 µM, respectively. In data set [6], the inhibition at 10 µM came out at 100%.
